Results: patent US11246929B2, “Combination of a protein kinase inhibitor and an additional chemotherapeutic agent” (Merck Patent GmbH, priority 2016, dated 2022)

Tested on: MO59K (DNA-PK wild type)
Test: AlamarBlue viability assay
Type: cell-based, human
Conditions: compound incubation for 72 h
Protocol: Details of the assay protocol and material utilized are set forth below.
After 24 h incubation at 37° C.
At the end of the compound incubation period 20 μl AlamarBlue reagent was added per well and the 96-well plates were incubated further up to seven hours. Absorption was determined at 540 nm by using Tecan Reader Connect and Magelan 7.
0% effect=cells treated with DMSO; −100% effect=no cells

Q: How did the “potentiation of etoposide, Compound 1 in comparison to VX-984” value turn out when `[2H]c1nc(C)nc([2H])c1-c1cc(NC[C@@H](C)c2cccc3c(C(N)=O)ccnc23)ncn1` [VX984, 8-[(1S)-2-[[6-(4,6-dideuterio-2-methylpyrimidin-5-yl)pyrimidin-4-yl]amino]-1-methylethyl]quinoline-4-carboxamide] was run?
A: requires higher concentrations of etoposide to arrive at the same % effect
